Data on 23 compounds can be found in US9120779B2, “Inhibitors of HCV NS5A” (PRESIDIO PHARMACEUTICALS, INC., priority 2008, dated 2015).

One assay deals with HCV genotype 1b replicon in Huh 7 cells. As to the kind of experiment: HCV replicon assay (luciferase readout, 1b_Huh-Luc/Neo-ET cell line). The conditions noted are these: Hepatitis C virus, Huh-7, 72 h, read-out: Inhibition of HCV genotype 1b, Table 1, 72 h incubation. The format is cell-based. The method, boiled down: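 Inhibition expressed as percent of untreated control luciferase signal and fitted to a Hill-slope equation for EC50, with repeat determinations. Compounds were added in triplicate to Huh 7 cells stably expressing the genotype 1b luciferase replicon, with 72 h exposure.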
On to `CC(C)[C@H](NC(=O)N1CCOCC1)C(=O)N1CCC[C@H]1c1ncc(-c2ccc([C@H]3CC[C@@H](c4cnc([C@@H]5CCCN5C(=O)[C@@H](NC(=O)N5CCOCC5)C(C)C)[nH]4)CC3)cc2)[nH]1` [compound 386], for which the EC50 fell in the range of 10 to 999 nM.

Consider `COC(=O)N[C@H](C(=O)N1CCC[C@H]1c1ncc(-c2ccc([C@H]3CC[C@H](c4cnc([C@@H]5CCCN5C(=O)[C@H](NC(=O)OC5CCOCC5)C(C)C)[nH]4)CC3)cc2)[nH]1)C(C)C` [compound 946], for which the EC50 was less than 1 nM.

Still in this assay, the particulars now being: Hepatitis C virus, Huh-7, 72 h, read-out: Inhibition of HCV genotype 1b, Table 3, 72 h incubation.
Turning to `O=C(N[C@@H](C(=O)N1CCC[C@H]1c1ncc(-c2cc(F)c(N3CCC(c4cnc([C@@H]5CCCN5C(=O)[C@H](NC(=O)C5CC5)c5ccccc5)[nH]4)CC3)c(F)c2)[nH]1)c1ccccc1)C1CC1` [compound 485], the EC50 was less than 1 nM. Take `COC(=O)N[C@@H](C(=O)N1CCC[C@H]1c1ncc(-c2cc(F)c(N3CCC(c4cnc([C@@H]5CCCN5C(=O)[C@H](NS(C)(=O)=O)c5ccccc5)[nH]4)CC3)c(F)c2)[nH]1)c1ccccc1` [compound 474]: the EC50 is less than 1 nM. For `COC(=O)N[C@@H](C(=O)N1CCC[C@H]1c1ncc(-c2cc(F)c(N3CCC(c4cnc([C@@H]5CCCCN5C(=O)[C@H](NC(=O)OC)C(C)C)[nH]4)CC3)c(F)c2)[nH]1)c1ccccc1` [compound 501], the EC50 is less than 1 nM. As to `COC(=O)N[C@@H](C(=O)N1CCCC[C@H]1c1ncc(C2CCN(c3c(F)cc(-c4cnc([C@@H]5CCCN5C(=O)[C@@H](c5ccccc5)N5CCCCC5)[nH]4)cc3F)CC2)[nH]1)c1ccccc1` [compound 491], the EC50 was less than 1 nM. Turning to `COC(=O)N[C@@H](C(=O)N[C@@H](C)c1ncc(C2CCN(c3c(F)cc(-c4cnc([C@@H]5CCCN5C(=O)[C@H](NC(=O)OC)c5ccccc5)[nH]4)cc3F)CC2)[nH]1)c1ccccc1` [compound 517], the EC50 was less than 1 nM.

The assay is the same for the next values; noted with them: Hepatitis C virus, Huh-7, 72 h, read-out: Inhibition of HCV genotype 1b, Table 4, 72 h incubation.
Turning to `CC(C)[C@H](NC(=O)OC(C)(C)C)C(=O)N1CCC[C@H]1c1nc2ccc(-c3ccc(-c4ccc5nc([C@@H]6CCCN6C(=O)[C@@H](NC(=O)OC(C)(C)C)C(C)C)[nH]c5c4)cc3)cc2[nH]1` [compound 554], the EC50 is greater than 1000 nM.

The same assay, now with this note: Hepatitis C virus, Huh-7, 72 h, read-out: Inhibition of HCV genotype 1b, Table 5, 72 h incubation.
As for `COC(=O)N[C@H](C(=O)N[C@@H](C)c1ncc(-c2ccc(C34CCC(c5cnc([C@@H]6CCCN6C(=O)[C@H](NC(=O)OC)c6ccccc6)[nH]5)(CC3)CC4)cc2)[nH]1)C(C)C` [compound 2083], the EC50 is less than 1 nM. Consider `CCNC(=O)N[C@H](C(=O)N1CCC[C@H]1c1ncc(C23CCC(c4ccc(-c5cnc([C@@H]6CCCN6C(=O)[C@@H](NC(=O)OC)C(C)C)[nH]5)cc4)(CC2)CC3)[nH]1)C(C)C` [compound 2100], for which the EC50 was less than 1 nM.

With `CCNC(=O)N[C@H](C(=O)N1CCC[C@H]1c1ncc(-c2ccc(C34CCC(c5cnc([C@@H]6CCCN6C(=O)[C@@H](NC(=O)OC)C(C)C)[nH]5)(CC3)CC4)cc2)[nH]1)C(C)C` [compound 2096], the EC50 was less than 1 nM. Still for that read-out and setting: the same measure for `COC(=O)N[C@H](C(=O)N1CCC[C@H]1c1ncc(C23CCC(c4ccc(-c5cnc([C@@H]6CCCN6C(=O)[C@@H](NC(=O)N6CCC(=O)CC6)C(C)C)[nH]5)cc4)(CC2)CC3)[nH]1)C(C)C` [compound 650]: 1 to 9.9 nM.

For `COC(=O)N[C@H](C(=O)N1CCC[C@H]1c1ncc(C23CCC(c4ccc(-c5cnc([C@@H]6CCCN6C(=O)[C@@H](NC(=O)N6CCC[C@H]6CO)C(C)C)[nH]5)cc4)(CC2)CC3)[nH]1)C(C)C` [compound 652], the EC50 is less than 1 nM. Regarding `COC(=O)N[C@H](C(=O)N1CCC[C@H]1c1ncc(-c2ccc(C34CCC(c5cnc([C@@H]6CCCN6C(=O)[C@@H](Nc6ncccn6)C(C)C)[nH]5)(CC3)CC4)cc2)[nH]1)C(C)C` [compound 918], the EC50 was less than 1 nM. With `CC(C)(C)OC(=O)N[C@H](C(=O)N1CCC[C@H]1c1ncc(-c2ccc(C34CCC(c5cnc([C@@H]6CCCN6C(=O)[C@H](NC(=O)OC(C)(C)C)c6ccccc6)[nH]5)(CC3)CC4)cc2)[nH]1)c1ccccc1` [compound 601], the EC50 is less than 1 nM. Take `CC(C)(C)OC(=O)N[C@@H](C(=O)N1CCC[C@H]1c1ncc(-c2ccc(C34CCC(c5cnc([C@@H]6CCCN6C(=O)[C@H](NC(=O)OC(C)(C)C)c6ccccc6)o5)(CC3)CC4)cc2)[nH]1)c1ccccc1` [compound 605]: the EC50 lay within 1 to 9.9 nM. As to `COC(=O)N[C@@H](C(=O)N1CCC[C@H]1CNC(=O)C12CCC(c3ccc(-c4cnc([C@@H]5CCCN5C(=O)[C@H](NC(=O)OC)c5ccccc5)[nH]4)cc3)(CC1)CC2)c1ccccc1` [compound 604], the EC50 is less than 1 nM. For `COC(=O)N[C@H](C(=O)N1CCC[C@H]1c1ncc(C23CCC(c4ccc(-c5cnc([C@@H]6CCCN6C(=O)[C@@H](NC(=O)N6CCOCC6)C(C)C)[nH]5)cc4)(CC2)CC3)[nH]1)C(C)C` [compound 645], the EC50 is less than 1 nM. Consider `CC[C@H](C)[C@H](NC(=O)OC)C(=O)N1CCC[C@H]1c1ncc(C23CCC(c4ccc(-c5cnc([C@@H]6CCCN6C(=O)[C@@H](NC(=O)OC)C(C)C)[nH]5)cc4)(CC2)CC3)[nH]1` [compound 2066], for which the EC50 is less than 1 nM. On to `COC(=O)N[C@H](C(=O)N1CCC[C@H]1c1ncc(C23CCC(c4ccc(-c5cnc([C@@H]6CCCN6C(=O)[C@H](NC6CCOCC6)C(C)C)[nH]5)cc4)(CC2)CC3)[nH]1)C(C)C` [compound 915], for which the EC50 was less than 1 nM.

Staying with this assay, now noted: Hepatitis C virus, Huh-7, 72 h, read-out: Inhibition of HCV genotype 1b, Table 8, 72 h incubation.
For the compound `COC(=O)N[C@H](C(=O)N1CCC[C@H]1c1ncc(C23CCC(c4ccc5c(c4)nc([C@@H]4CCCN4C(=O)[C@@H](NC(=O)OC)C(C)C)n5C)(CC2)CC3)[nH]1)C(C)C` [compound 2116], the EC50 lay in the range of 10 to 999 nM.

Staying with this assay, now noted: read-out: Inhibition of HCV genotype 1b, Table 5, 72 h incubation.
Take `COC(=O)N[C@H](C(=O)N1CCC[C@H]1c1ncc(-c2ccc(C34CCC(c5cnc([C@@H]6CCCN6C(=O)[C@@H](NC(=O)N6CCC(O)CC6)C(C)C)[nH]5)(CC3)CC4)cc2)[nH]1)C(C)C` [compound 633]: the EC50 was less than 1 nM. Take `COC(=O)N[C@@H](C(=O)N1CCC[C@H]1c1ncc(-c2ccc(C34CCC(c5cnc([C@@H]6CCCN6C(=O)[C@@H](NC(=O)N6CCOCC6)C(C)C)[nH]5)(CC3)CC4)cc2)[nH]1)c1ccccc1` [compound 643]: the EC50 was 1 to 9.9 nM.
